The source of these data is US11020422B2, “Cyclodextrin for the treatment of lysosomal storage diseases” (The United States of America, as represented by the …, priority 2012, dated 2021).

Like-named read-outs stand apart in the source and are kept apart here.

In assay [1] the test system is Wolman fibroblasts. As to the kind of experiment: Nile Red staining of neutral lipids in Wolman fibroblasts. To be noted: cultured with compound for 3 days.
Description: Nile-red Staining—The cells were cultured and treated as described above in 96-well plates. On the experimental day, cells were washed two times with PBS and live-stained with 1 μM Nile-red dye solution (prepared in cell culture medium) at 100 μl/well followed by an incubation at 37° C. for 10 min. After washed twice with PBS, the cells were fixed in 3.2% paraformaldehyde in PBS at 100 μl/well 1 μg/ml Hoechst 33342 (Invitrogen) in PBS and incubation at RT for 30 min. The plate was washed twice with PBS and the images were measured in Incell2000 imaging plate reader with a FTTC filter set (Ex=480±20 nm and Ex=525±36 nm) for the neutral lipids (cholesteryl esters and triglycerides) and a DAPI filter set for Hoechst nuclear staining.
(Nile Red) Cells were cultured in the presence of delta tocopherol, alpha tocopherol and MBCD plus in combination for 3 days and then stained for neutral lipid with Nile red.
Wolman fibroblasts were treated with δ-tocopherol, α-tocopherol, methyl-β-cyclodextrin, or combinations of δ-tocopherol and methyl-β-cyclodextrin or α-tocopherol and methyl-β-cyclodextrin. […] To further characterize the effect of treatment on lipid accumulation, treated fibroblasts were evaluated using a Nile Red assay to measure neutral lipid accumulation. […] The Nile Red staining was visualized by fluorescent microscopy.
Assay [2] deals with fibroblasts derived from patients with lysosomal storage diseases. As to the kind of experiment: LysoTracker dye staining of enlarged lysosomes. To be noted: for concentration needed for significant effect on reduction of enlarged lysosome size: single compound use, skin fibroblasts of nine lysosomal storage diseases. In kind it is cell-based, human. The procedure:
(§1) On the experimental day, cells were live-stained with 100 μl/well 50 nM LysoTracker-Red DND-99 dye (Invitrogen, #L-7528) in medium at 37° C. for 1 hr followed by plate washing twice with PBS. The plate was then fixed in 100 μl/well 3.2% formaldehyde for 1 hr and washed for two times with PBS. […] After washing twice with PBS, the plates were stored at 4° C. until imaging analysis. DAPI filter set and TRITC filter set in the Incell2000 imaging plate reader were used to visualize Hoechst nuclear staining and LysoTracker staining, respectively.
FIG. 5. […] To test this hypothesis we measured the ability of delta-T to decrease acidic/lysosomal compartment size as determined by LysoTracker staining in fibroblasts derived from patients with six other diseases. Lysosomal storage occurs in these fibroblasts consists of ceroid/lipofuscin in Batten (CLN2), globotriaosylceramide in Fabry, ceramide in Farber, sphingomyelin in NPA, partially degraded heparan sulfate in Sanfilippo type B, and GM2 ganglioside in Tay-Sachs (Table S1).
The effect of various cyclodextrins, δ-tocopherol, and combinations of cyclodextrins and δ-tocopherol on lipid accumulation and lysosome size in wild-type and lysosomal storage disease fibroblasts (Wolman, Tay-Sach, Fabry, Farber, and MPSIIIB fibroblasts) was determined using Lysotracker assay. In brief, cells were treated with various combinations and concentrations of drugs followed by staining with the Lyso tracker dye which is a basophilic fluorescent probe that accumulates in acidic compartments, i.e. lysosomes, within the cell.

Assay [3] deals with mouse model of Niemann Pick Type C (NPC) disease. To be noted: cited from earlier work.
For assay [4], the system named is NPC1, Wolman and other lysosome storage disorder fibroblasts. As to the kind of experiment: Electron microscopy of lysosomal ultrastructure. To be noted: Wolman fibroblasts; FIG. 6.
Description: Electron Microscopy—Fibroblast cells were seeded in 6-well plates at 150,000 cells/well in 5 ml medium and cultured for 1 day in the presence or absence of compounds. Cells were fixed in 2% glutaraldehyde, 0.1 M cacodylate buffer, pH 7.2 for 1 hr at room temperature and then stored at 4° C. until TEM analysis was performed. The cells were post fixed in 1% osmium tetroxide in the same buffer for 1 hour and en bloc stained with 0.5% uranyl acetate in 0.1 M acetate buffer, pH 4.2. The cells were then dehydrated in graded ethanol solutions (35%, 50%, 70%, 95% and 100%) and infiltrated overnight in epoxy resin (Poly/Bed 812, Polysciences). After adding fresh pure resin the cell plates were cured for 72 h in 55° C. After removing the polystyrene plates, suitable areas for thin sectioning were selected, cut out with a jewelry saw and glued onto empty resin stubs. About 70 nm thin sections were cut on an ultramicrotome (Leica EM UC6) and mounted on naked copper grids. The thin sections were double stained (uranyl acetate and lead citrate), examined in a Hitachi H-7650 transmission electron microscope, and images were taken using an AMT CCD camera.
The effects of δ-tocopherol and methyl-β-cyclodextrin on the ultrastructural pathology of lysosomes in lysosome storage disorder cells were investigated by electron microscopy. In brief, following treatment of wild-type and lysosome storage disorder fibroblasts with δ-tocopherol, methyl-β-cyclodextrin, or δ-tocopherol and methyl-β-cyclodextrin, the fibroblasts were fixed and embedded. Thin sections of the embedded cells were then prepared and the ultrastructural pathology was examined by electron microscopy. […] The effects of δ-tocopherol and/or methyl-β-cyclodextrin on the ultrastructural pathology of other lysosome disorder fibroblasts-Farber (FIGS. 7,8 and 10); Tay-Sachs (FIG. 8); Fabry (FIG. 8); Wolman (FIG. 9); NPA (FIG. 9); Batten (FIG. 9); MSIIB (FIG. 9)—were analyzed by electron microscopy.
Assay [5] deals with NPC1-NSCs. As to the kind of experiment: Filipin and Lysotracker staining in NPC1 neural stem cells. The class given is cell-based, human. To be noted: fluorescence microscopy, FIG. 12B. The procedure:
as §1
(§2) Induced pluripotent stem cells (IPSCs) from the NPC1 skin fibroblasts were generated and differentiated into neural stem cells (NPC1-NSCs).

The test system of assay [6] is NPC1-NSCs. In words: Amplex-red cholesterol assay in NPC1 neural stem cells. The class given is cell-based, human. Here is the method: (§3) Amplex-Red Cholesterol Assay—Total cholesterol in patient cells was measured by the Amplex-Red Cholesterol Assay Kit (Invitrogen). The unesterified cholesterol was determined using the same kit without the enzyme […]. Esterified cholesterol was determined as the difference between the total and unesterified cholesterol values. The cells were seeded to black, tissue culture-treated 96-well, 384-well or 1536-well plates at 4000, 1000, 300 cells/well in 100, 20 or 5 μl medium by a Multidrop Combi dispenser (Thermo Scientific, Waltham, Mass.) and cultured for 24 hr. The assay plates were added with compound dilution in DMSO solution using a Pintool station (Klaypsys, San Diego, Calif.) and cultured for 3 days. The cells were washed twice manually for 96-well or 384-well plates or using a centrifugation method in which the inverted plates were placed on a stack of paper towel and centrifuged at 800 rpm for 1 min followed by addition of 7 μl/well PBS (added gently with a 45 degree angled liquid dispenser (Klaypsys). The cholesterol assay mixture from the kit was added at 100, 20 or 2.5 μl/well for 96-well, 384-well or 1536-well plates and incubated for 1 hr at 37° C. The resulted fluorescence intensity was measured with excitation of 560 (±10) and emission of 590 (±10) in a fluorescence plate reader (Tecan, Durham, N.C.).
as §2

Assay [7] relates to Wolman fibroblasts. As to the kind of experiment: β-Hexosaminidase (HEXB) release, lysosomal exocytosis. The class given is cell-based, human. To be noted: for lysosomal exocytosis as determined by HEXB secretion: Wolman fibroblasts, FIG. 3; for exocytosis: cyclodextrins, wild type and Wolman cells, assay not stated. Here is the method:
Measurement of β-Hexosaminidase (HEXB) Release—Fibroblasts were cultured in 24-well plates at 30,000 cells/well in 0.4 ml medium for one day at 37° C. After being washed twice with the assay buffer (DMEM with 2 mM D-mannose 6-phosphate sodium salt), the cells with 0.4 ml/well the assay buffer were incubated at 37° with 0.2 ml/well compound in assay buffer. […] The rest of assay buffer in the 24-well plate was discarded followed by addition of 0.6 ml 1% Triton-X100 in dH2O to lyse the cells. After incubation at 37° C. for 30 min. 6 μl/well cell lysate were added to the 96-well plate with 24 μl assay buffer followed by 90 μl/well 2.25 mM HEXB substrate, 4-Methylumbelliferyl N-acetyl-β-D-glucosaminide (Sigma-Aldrich, #M2133), in a 25 mM citric acid buffer at pH 4.5. The 96-well plate was then measured in the Tecan fluorescence plate reader (Ex=365±20 nm and Em=460±20 nm) after 1 hr incubation at 37° C. and addition of 100 μl/well stop solution (1 M glycine and 1 M NaOH at pH 10.5).
FIG. 3. […] We measured lysosomal exocytosis in delta-T-treated Wolman fibroblasts by determining the activity of beta-hexosaminidase (HEXB), a lysosomal enzyme, in the extracellular medium.
In brief, the level of lysosomal exocytosis was determined by measuring the level of the lysosomal enzyme HEXB secreted into the culture medium following treatment with drug.

Assay [8] deals with Wolman fibroblasts. In words: Amplex-Red cholesterol assay in Wolman fibroblasts. The class given is cell-based, human. To be noted: for cholesterol accumulation: cyclodextrins alone, other lysosomal storage disorders (FIG. 1). Here is the method: as §3
The next assay deals with NPC1 skin fibroblasts. In words: Cholesterol accumulation (Amplex-red, filipin) and enlarged lysosomes (Lysotracker) in NPC1 skin fibroblasts. The class given is cell-based, human. To be noted: for ranking order of cholesterol reduction effect / cholesterol accumulation: NPC cells. The procedure:
as §3

For a further assay, the system named is primary NPC fibroblasts. To be noted: primary NPC fibroblasts / LSD fibroblast; reported; cited from earlier work.
In the next assay the test system is NPC cells. To be noted: NPC / NPC1 cells; reported; cited from earlier work.
The mark [9] stands for this setting: NPC1-NSCs, FIG. 12A, read-out: IC50, Amplex-red cholesterol assay.

Turning to `COC[C@H]1O[C@@H]2O[C@H]3[C@H](O)[C@@H](OC)[C@@H](O[C@H]4[C@H](O)[C@@H](OC)[C@@H](O[C@H]5[C@H](O)[C@@H](OC)[C@@H](O[C@H]6[C@H](O)[C@@H](OC)[C@@H](O[C@H]7[C@H](O)[C@@H](OC)[C@@H](O[C@H]8[C@H](O)[C@@H](OC)[C@@H](O[C@H]1[C@H](O)[C@H]2OC)O[C@@H]8COC)O[C@@H]7COC)O[C@@H]6COC)O[C@@H]5COC)O[C@@H]4COC)O[C@@H]3COC` [MBCD, Heptakis(2,6-di-o-methyl)-beta-cyclodextrin], the “neutral lipid accumulation (Nile red)” value in the assay on Wolman fibroblasts [1] (FIG. 2) was “reduces accumulation of neutral lipids”; in the assay on Wolman fibroblasts [1] (FIG. 2, listed as methyl-β-cyclodextrin), “significantly reduced”. In addition, the LysoTracker staining entry in assay [2] (NPC1 and Wolman fibroblasts, 40 μM delta-T or 300 μM MBCD) is “significantly reduced LysoTracker staining”. In assay [2] (Wolman, Tay-Sach, Fabry, Farber, MPSIIIB fibroblasts, FIGS. 5A-5D), the “lipid accumulation and lysosome size (Lysotracker)” value is “reduced lipid accumulation and lysosome size”. Besides, in assay [2], the “concentration needed for significant effect on reduction of enlarged lysosome size” value stood at 300 µM. The “cholesterol accumulation and neuronal cell loss” value in [3] was “reduced cholesterol accumulation and neuronal cell loss”. For the same compound, the “abnormal lysosomal structures (electron microscopy)” value in [4] was “significantly reduced”. Moreover, in the assay with NPC1-NSCs [5], the “reduction of cholesterol accumulation (filipin staining) and enlarged lysosomes (Lysotracker staining)” value is given as “better than those of delta-tocopherol”. In addition, the IC50 with NPC1-NSCs [6] (setting [9]) was 10 µM. Also, the “lysosomal exocytosis as determined by HEXB secretion” value in the assay with Wolman fibroblasts [7] is recorded as “significant increases in lysosomal exocytosis”. Further, in the assay with Wolman fibroblasts [8] (Wolman fibroblasts, FIGS. 1A-1C), the “reduction in total cholesterol” value is recorded as “significant reduction”. Also, in the assay on Wolman fibroblasts [8] (Wolman fibroblasts, FIGS. 1D-1F), the “reduction in free cholesterol” value is listed as “significant reduction”. The cholesterol accumulation entry in the assay on Wolman fibroblasts [8] is reported as “most potent”. Besides, the “reduction of cholesterol accumulation and enlarged lysosomes” value in the assay on NPC1 skin fibroblasts (NPC1 skin fibroblasts, 160 μM MBCD alone, 50 μM HBPCD or 20 μM MBCD with 10 μM delta-tocopherol, FIG. 11) is “almost completely reversed the phenotype”. Besides, the “ranking order of cholesterol reduction effect” value in the assay on NPC1 skin fibroblasts is given as “MBCD>alpha-CD>gamma-CD”. The “potency of MBCD relative to HBPCD” value in the assay with NPC1 skin fibroblasts (reduction of cholesterol accumulation and enlarged lysosome size in NPC1 fibroblasts) is given as “over 30 fold”.

As for `OC[C@H]1O[C@@H]2O[C@H]3[C@H](O)[C@@H](O)[C@@H](O[C@H]4[C@H](O)[C@@H](O)[C@@H](O[C@H]5[C@H](O)[C@@H](O)[C@@H](O[C@H]6[C@H](O)[C@@H](O)[C@@H](O[C@H]7[C@H](O)[C@@H](O)[C@@H](O[C@H]8[C@H](O)[C@@H](O)[C@@H](O[C@H]9[C@H](O)[C@@H](O)[C@@H](O[C@H]1[C@H](O)[C@H]2O)O[C@@H]9CO)O[C@@H]8CO)O[C@@H]7CO)O[C@@H]6CO)O[C@@H]5CO)O[C@@H]4CO)O[C@@H]3CO` [gamma-CD, γ-cyclodextrin], the exocytosis result in the assay on Wolman fibroblasts [7] is “enhance exocytosis”. Also, the cholesterol accumulation result in the assay with Wolman fibroblasts [8] is given as “can reduce cholesterol accumulation”. Further, in the assay with NPC1 skin fibroblasts, the cholesterol accumulation result is recorded as “can reduce cholesterol accumulation” and the “ranking order of cholesterol reduction effect” value is on record as “MBCD>alpha-CD>gamma-CD”.

As for `OC[C@H]1O[C@@H]2O[C@H]3[C@H](O)[C@@H](O)[C@@H](O[C@H]4[C@H](O)[C@@H](O)[C@@H](O[C@H]5[C@H](O)[C@@H](O)[C@@H](O[C@H]6[C@H](O)[C@@H](O)[C@@H](O[C@H]7[C@H](O)[C@@H](O)[C@@H](O[C@H]8[C@H](O)[C@@H](O)[C@@H](O[C@H]1[C@H](O)[C@H]2O)O[C@@H]8CO)O[C@@H]7CO)O[C@@H]6CO)O[C@@H]5CO)O[C@@H]4CO)O[C@@H]3CO` [beta-CD, β-cyclodextrin], the lysosomal exocytosis result with primary NPC fibroblasts is on record as “increased exocytosis”. Besides, the exocytosis entry in the assay with Wolman fibroblasts [7] is listed as “enhance exocytosis”. In addition, the cholesterol accumulation entry in the assay with Wolman fibroblasts [8] and with NPC1 skin fibroblasts was “can reduce cholesterol accumulation” throughout.

Turning to `Cc1c(C)c2c(c(C)c1O)CC[C@@](C)(CCC[C@H](C)CCC[C@H](C)CCCC(C)C)O2` [α-tocopherol], the “neutral lipid accumulation (Nile red)” value is reported as “failed to show any effect” in the assay on Wolman fibroblasts [1] (FIG. 2) and “not as potent” in the assay with Wolman fibroblasts [1] (FIG. 2, listed as Alpha Tocopherol). In the assay on Wolman fibroblasts [7], the “lysosomal exocytosis as determined by HEXB secretion” value was “significant increases in lysosomal exocytosis”.

Take `OC[C@H]1O[C@@H]2O[C@H]3[C@H](O)[C@@H](O)[C@@H](O[C@H]4[C@H](O)[C@@H](O)[C@@H](O[C@H]5[C@H](O)[C@@H](O)[C@@H](O[C@H]6[C@H](O)[C@@H](O)[C@@H](O[C@H]7[C@H](O)[C@@H](O)[C@@H](O[C@H]1[C@H](O)[C@H]2O)O[C@@H]7CO)O[C@@H]6CO)O[C@@H]5CO)O[C@@H]4CO)O[C@@H]3CO` [alpha-CD, α-cyclodextrin]: in the assay on Wolman fibroblasts [7], the exocytosis result is “enhance exocytosis”. Also, in the assay on Wolman fibroblasts [8], the cholesterol accumulation entry is reported as “can reduce cholesterol accumulation”. Moreover, in the assay with NPC1 skin fibroblasts, the cholesterol accumulation entry is reported as “can reduce cholesterol accumulation” and the “ranking order of cholesterol reduction effect” value is “MBCD>alpha-CD>gamma-CD”.

Turning to “(2-Hydroxypropyl)-beta-cyclodextrin [HBPCD]”, the “concentration needed for significant effect on reduction of enlarged lysosome size” value in [2] is 8000 µM. In assay [3], the “cholesterol accumulation and neuronal cell loss” value is “reduced cholesterol accumulation and neuronal cell loss”. Besides, in the assay with primary NPC fibroblasts, the lysosomal exocytosis entry is “promote a calcium-dependent lysosomal exocytosis”. In the assay with NPC1-NSCs [5], the “reduction of cholesterol accumulation (filipin staining) and enlarged lysosomes (Lysotracker staining)” value is “better than those of delta-tocopherol”. Besides, the “potency in NPC1 neuronal cells compared to NPC1 skin fibroblasts” value with NPC1-NSCs [6] is “much more potent”. The “cholesterol accumulation, combination therapy experiment” value in the assay on NPC1-NSCs [6] (50 μM HBPCD, 10 μM delta-tocopherol, alone or combined, compared with 5 mM HBPCD) was “did not show the significant cholesterol reduction effect”. Further, the IC50 turned out to be 12 µM in the assay on NPC1-NSCs [6] (setting [9]) and 50 µM in the assay with NPC1-NSCs [6] (human NPC1 neural stem cells, values given under dosage recommendations, read-out: IC50 on reduction of cholesterol accumulation, Amplex-red cholesterol assay). Further, in the assay on NPC1-NSCs [6] (human NPC1 neural stem cells), the “ratio of IC50 HBPCD to IC50 delta-tocopherol” value worked out at 3.3 fold. Also, the “concentration needed for reduction of cholesterol accumulation and enlarged lysosomes” value in the assay on NPC1 skin fibroblasts (NPC1 skin fibroblasts, single use, FIG. 11A) was “millimolars”.

`COc1cc(/C=C/C(=O)CC(=O)/C=C/c2ccc(O)c(OC)c2)ccc1O` [curcumin]: the “cholesterol efflux, accumulation or storage” value with NPC cells is recorded as “reduce cholesterol storage”.

A word on the IC50: it is the concentration needed to halve the response being measured.
